Laboratory results taken from patent US20260327191A1, “GSK3a INHIBITORS AND METHODS OF USE THEREOF” (Blueprint Medicines Corporation, priority 2023, published 2026).

Legend:
human GSK3α = biological target: T1, human GSK3α (Homo sapiens, UniProt P49840); assay: In vitro enzymatic activity assay, GSK3α; assay type: biochemical; conditions: 1.0 mM ATP, 1.0 μM peptide substrate, 120 min, 25° C, read-out: Enzyme GSK3α (IC50)
T1 construct: Full length human GSK3α or GSK3B expressed as N-terminal GST fusion proteins; GST (N); purchased Carna Biosciences (Japan); host or cells: baculovirus host
T1 sequence (P49840 whole entry, the tested form may be a part): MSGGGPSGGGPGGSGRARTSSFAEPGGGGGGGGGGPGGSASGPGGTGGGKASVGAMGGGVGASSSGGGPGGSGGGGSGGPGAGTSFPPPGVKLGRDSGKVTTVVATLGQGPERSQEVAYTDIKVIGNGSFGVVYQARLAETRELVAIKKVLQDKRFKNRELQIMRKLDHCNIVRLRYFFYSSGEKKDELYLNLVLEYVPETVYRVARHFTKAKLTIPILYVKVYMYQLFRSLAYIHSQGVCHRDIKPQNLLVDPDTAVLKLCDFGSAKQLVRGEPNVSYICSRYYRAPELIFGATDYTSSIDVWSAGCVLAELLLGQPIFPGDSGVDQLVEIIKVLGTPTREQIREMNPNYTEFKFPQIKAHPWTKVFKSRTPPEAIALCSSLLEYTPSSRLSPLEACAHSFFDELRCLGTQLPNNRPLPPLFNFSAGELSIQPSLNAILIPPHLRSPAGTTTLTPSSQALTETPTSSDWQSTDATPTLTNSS
Protocol: (§1) Full length human GSK3α or GSK3B expressed as N-terminal GST fusion proteins in baculovirus host were purchased from Carna Biosciences (Japan). The kinase was pre-incubated with ATP (adenosine-5′-triphosphate) for 45 min, then incubated with tested compounds for another 45 min in assay buffer that contains 100 mM HEPES (N-2-hydroxyethylpiperazine-N′-2-ethanesulfonic acid), pH 7.5, 10 mM MgCl2, 1.0 mM DTT, and 0.015% Briji-35. […] Percent inhibition was plotted against compound concentration to generate 10-point dose response curve with 3-fold serial dilution starting from 10 μM. IC50 value was determined from the 4-parameter logistic curve fitting.

GSK3A = biological target: T2, GSK3A (Homo sapiens, UniProt P49840); assay: NanoBRET cellular target engagement assay, Nanoluc-GSK3A in HEK293 cells; assay type: cell-based; conditions: NanoBRET GSK3α IC50, HEK293 cells, tracer K-8, 2 hours, 37° C
T2 construct: expressed in transfected cells
T2 sequence (P49840 whole entry): as the sequence (P49840 whole entry, the tested form may be a part) above
Protocol: (§2) In the assay, HEK293 cells stably expressing either Nanoluc-GSK3A or Nanoluc-GSK3B were maintained in culture media and seeded, using a multidrop dispenser, at a density of 5×10^3 cells per well in 384-well white plates with 100 ng/ml doxycycline (Sigma) overnight.
(§3) Compound was first diluted in DMSO to generate a 9-point serial dilution then diluted to 10× final concentration in Opti-MEM™ (Gibco). After overnight incubation, cell medium was aspirated from the seeded cells using a microplate automatic washer, then 27 μL of pre-warmed Opti-MEM™ with kinase tracer (K-8) and 3 μL of Opti-MEM™ diluted DMSO or compounds were added per well. Plates were protected from light, mixed in an orbital shaker for 3 min at RT and incubated at 37° C., 5% CO2 in a humidified incubator for 2 hours. After acclimation at RT for 15 min, 15 μL of 3× complete NanoBRET™ Nano-Glo Substrate/Inhibitor (Promega) was added per well. Plates were mixed in an orbital shaker for 3 min at RT and incubated for an additional 30 min. Donor emission at 460 nm and acceptor emission at 647 nm were measured in EnVision multilabel plate reader (Perkin Elmer).

GSK3B [1] = biological target: T3, GSK3B (Homo sapiens, UniProt P49841); assay: NanoBRET cellular target engagement assay, Nanoluc-GSK3B in HEK293 cells; assay type: cell-based; set-up: expressed in transfected cells; conditions: NanoBRET GSK3β IC50, HEK293 cells, tracer K-8, 2 hours, 37° C
T3 sequence (P49841 whole entry): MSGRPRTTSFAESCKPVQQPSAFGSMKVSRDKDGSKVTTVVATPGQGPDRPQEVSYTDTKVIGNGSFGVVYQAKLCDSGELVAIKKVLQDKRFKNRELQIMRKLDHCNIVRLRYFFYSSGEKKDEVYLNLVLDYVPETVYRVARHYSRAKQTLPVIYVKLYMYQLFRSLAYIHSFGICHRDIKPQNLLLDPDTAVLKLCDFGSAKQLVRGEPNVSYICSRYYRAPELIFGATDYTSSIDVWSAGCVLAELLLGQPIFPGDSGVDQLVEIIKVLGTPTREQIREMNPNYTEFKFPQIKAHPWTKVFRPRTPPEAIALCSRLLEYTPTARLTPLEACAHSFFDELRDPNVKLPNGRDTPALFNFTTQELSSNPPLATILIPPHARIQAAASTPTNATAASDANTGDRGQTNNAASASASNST
Protocol: as §2, §3

GSK3B [2] = biological target: T3, GSK3B; assay: In vitro enzymatic activity assay, GSK3β; assay type: biochemical; set-up: Full length human GSK3α or GSK3B expressed as N-terminal GST fusion proteins; GST (N); purchased Carna Biosciences (Japan); host or cells: baculovirus host; conditions: 1.0 mM ATP, 1.0 μM peptide substrate, 120 min, 25° C, read-out: Enzyme GSK3β (IC50)
Protocol: as §1

| IC50 (human GSK3α) [nM] | IC50 (GSK3A) [nM] | IC50 (GSK3B [1]) [nM] | IC50 (GSK3B [2]) [nM] | Structure (SMILES) |
| --- | --- | --- | --- | --- |
| 3.8 | 2.4 | 141 | 199 | CNC(C)c1cncc(NC(=O)c2c(N)ncn(-c3c(Cl)cc(Cl)cc3Cl)c2=O)c1 (single isomer, unassigned) [Example 12, (R)-4-amino-N-(5-(1-(methylamino)ethyl)pyridin-3-yl)-6-oxo-1-(2,4,6-trichlorophenyl)-1,6-dihydropyrimidine-5-carboxamide or (S)-4-amino-N-(5-(1-(methylamino)ethyl)pyridin-3-yl)-6-oxo-1-(2,4,6-trichlorophenyl)-1,6-dihydropyrimidine-5-carboxamide] |
| 17.7 | 9.8 | 503 | 1010 | CNC(C)c1cncc(NC(=O)c2c(N)ncn(-c3c(Cl)cc(Cl)cc3Cl)c2=O)c1 (single isomer, unassigned) [Example 13, (S)-4-amino-N-(5-(1-(methylamino)ethyl)pyridin-3-yl)-6-oxo-1-(2,4,6-trichlorophenyl)-1,6-dihydropyrimidine-5-carboxamide or (R)-4-amino-N-(5-(1-(methylamino)ethyl)pyridin-3-yl)-6-oxo-1-(2,4,6-trichlorophenyl)-1,6-dihydropyrimidine-5-carboxamide] |
| 4.1 | 1.9 | 132 | 255 | [2H]C([2H])([2H])NC(C)c1cncc(NC(=O)c2c(N)ncn(-c3c(C)cc(C(F)(F)F)cc3Cl)c2=O)c1 (single isomer, unassigned) [Example 16, (R)-4-amino-1-((S)-2-chloro-6-methyl-4-(trifluoromethyl)phenyl)-N-(5-(1-((methyl-d3)amino)ethyl)pyridin-3-yl)-6-oxo-1,6-dihydropyrimidine-5-carboxamide or (S)-4-amino-1-((S)-2-chloro-6-methyl-4-(trifluoromethyl)phenyl)-N-(5-(1-((methyl-d3)amino)ethyl)pyridin-3-yl)-6-oxo-1,6-dihydropyrimidine-5-carboxamide] |
| 11.9 | 7.1 | 429 | 622 | CNC(C)c1cncc(NC(=O)c2c(N)ncn(-c3c(Cl)cc(OC)cc3Cl)c2=O)c1 (single isomer, unassigned) [Example 18, (S)-4-amino-1-(2,6-dichloro-4-methoxyphenyl)-N-(5-(1-(methylamino)ethyl)pyridin-3-yl)-6-oxo-1,6-dihydropyrimidine-5-carboxamide or (R)-4-amino-1-(2,6-dichloro-4-methoxyphenyl)-N-(5-(1-(methylamino)ethyl)pyridin-3-yl)-6-oxo-1,6-dihydropyrimidine-5-carboxamide] |
| 3.2 | 3.5 | 180 | 232 | CNC(C)c1cncc(NC(=O)c2c(N)ncn(-c3c(Cl)cc(OC)cc3Cl)c2=O)c1 (single isomer, unassigned) [Example 19, (R)-4-amino-1-(2,6-dichloro-4-methoxyphenyl)-N-(5-(1-(methylamino)ethyl)pyridin-3-yl)-6-oxo-1,6-dihydropyrimidine-5-carboxamide or (S)-4-amino-1-(2,6-dichloro-4-methoxyphenyl)-N-(5-(1-(methylamino)ethyl)pyridin-3-yl)-6-oxo-1,6-dihydropyrimidine-5-carboxamide] |
| 4.1 | 2.8 | 147 | 298 | CCOc1cc(Cl)c(-n2cnc(N)c(C(=O)Nc3cncc(C(C)NC)c3)c2=O)c(Cl)c1 (single isomer, unassigned) [Example 24, (R)-4-amino-1-(2,6-dichloro-4-ethoxyphenyl)-N-(5-(1-(methylamino)ethyl)pyridin-3-yl)-6-oxo-1,6-dihydropyrimidine-5-carboxamide or (S)-4-amino-1-(2,6-dichloro-4-ethoxyphenyl)-N-(5-(1-(methylamino)ethyl)pyridin-3-yl)-6-oxo-1,6-dihydropyrimidine-5-carboxamide] |
| 2.4 | 1.7 | 42.5 | 54.2 | COCc1cc(C)c(-n2cnc(N)c(C(=O)Nc3cncc4c3CCC4(C)N)c2=O)c(C)c1 (single isomer, unassigned) [Example 27, (R)-4-amino-N-(7-amino-7-methyl-6,7-dihydro-5H-cyclopenta[c]pyridin-4-yl)-1-(4-(methoxymethyl)-2,6-dimethylphenyl)-6-oxo-1,6-dihydropyrimidine-5-carboxamide or (S)-4-amino-N-(7-amino-7-methyl-6,7-dihydro-5H-cyclopenta[c]pyridin-4-yl)-1-(4-(methoxymethyl)-2,6-dimethylphenyl)-6-oxo-1,6-dihydropyrimidine-5-carboxamide] |
| 6.9 | 5 | 418 | 405 | COC[C@](C)(N)c1cncc(NC(=O)c2c(N)ncn(-c3c(Cl)cc(OC)cc3Cl)c2=O)c1 (single isomer, unassigned) [Example 31, (R)-4-amino-N-(5-(2-amino-1-methoxypropan-2-yl)pyridin-3-yl)-1-(2,6-dichloro-4-methoxyphenyl)-6-oxo-1,6-dihydropyrimidine-5-carboxamide or (S)-4-amino-N-(5-(2-amino-1-methoxypropan-2-yl)pyridin-3-yl)-1-(2,6-dichloro-4-methoxyphenyl)-6-oxo-1,6-dihydropyrimidine-5-carboxamide] |
| 6.3 | 2.6 | 158 | 269 | COc1cc(Cl)c(-n2cnc(N)c(C(=O)Nc3cncc([C@@H]4NC[C@H]5CCC[C@H]54)c3)c2=O)c(Cl)c1 (single isomer, unassigned) [Example 32, 4-amino-1-(2,6-dichloro-4-methoxyphenyl)-N-(5-((1R,3aS,6aR)-octahydrocyclopenta[c]pyrrol-1-yl)pyridin-3-yl)-6-oxo-1,6-dihydropyrimidine-5-carboxamide or 4-amino-1-(2,6-dichloro-4-methoxyphenyl)-N-(5-((1S,3aR,6aS)-octahydrocyclopenta[c]pyrrol-1-yl)pyridin-3-yl)-6-oxo-1,6-dihydropyrimidine-5-carboxamide] |
| 14.7 | 6.2 | 412 | 693 | CCC(N)c1cncc(NC(=O)c2c(N)ncn(-c3c(C)cc(COC)cc3C)c2=O)c1 (single isomer, unassigned) [Example 35, (R)-4-amino-N-(5-(1-aminopropyl)pyridin-3-yl)-1-(4-(methoxymethyl)-2,6-dimethylphenyl)-6-oxo-1,6-dihydropyrimidine-5-carboxamide or (S)-4-amino-N-(5-(1-aminopropyl)pyridin-3-yl)-1-(4-(methoxymethyl)-2,6-dimethylphenyl)-6-oxo-1,6-dihydropyrimidine-5-carboxamide] |
| 12.1 | 5.9 | 386 | 605 | Cc1cc(C#N)cc(Cl)c1-n1cnc(N)c(C(=O)Nc2cccc([C@@H]3CCCCN3)c2)c1=O (single isomer, unassigned) [Example 41, (S)-4-amino-1-((S)-2-chloro-4-cyano-6-methylphenyl)-6-oxo-N-(3-(piperidin-2-yl)phenyl)-1,6-dihydropyrimidine-5-carboxamide or (R)-4-amino-1-((S)-2-chloro-4-cyano-6-methylphenyl)-6-oxo-N-(3-(piperidin-2-yl)phenyl)-1,6-dihydropyrimidine-5-carboxamide] |
